Measured values as given in ChEMBL document CHEMBL5291721, “A preclinical secondary pharmacology resource illuminates target-adverse drug reaction associations of marketed drugs” (Nat Commun, 2023).

Assays:
[1] = target: T1, Glucocorticoid receptor (Homo sapiens, UniProt P04150); assay type: functional
T1 sequence (P04150 whole entry): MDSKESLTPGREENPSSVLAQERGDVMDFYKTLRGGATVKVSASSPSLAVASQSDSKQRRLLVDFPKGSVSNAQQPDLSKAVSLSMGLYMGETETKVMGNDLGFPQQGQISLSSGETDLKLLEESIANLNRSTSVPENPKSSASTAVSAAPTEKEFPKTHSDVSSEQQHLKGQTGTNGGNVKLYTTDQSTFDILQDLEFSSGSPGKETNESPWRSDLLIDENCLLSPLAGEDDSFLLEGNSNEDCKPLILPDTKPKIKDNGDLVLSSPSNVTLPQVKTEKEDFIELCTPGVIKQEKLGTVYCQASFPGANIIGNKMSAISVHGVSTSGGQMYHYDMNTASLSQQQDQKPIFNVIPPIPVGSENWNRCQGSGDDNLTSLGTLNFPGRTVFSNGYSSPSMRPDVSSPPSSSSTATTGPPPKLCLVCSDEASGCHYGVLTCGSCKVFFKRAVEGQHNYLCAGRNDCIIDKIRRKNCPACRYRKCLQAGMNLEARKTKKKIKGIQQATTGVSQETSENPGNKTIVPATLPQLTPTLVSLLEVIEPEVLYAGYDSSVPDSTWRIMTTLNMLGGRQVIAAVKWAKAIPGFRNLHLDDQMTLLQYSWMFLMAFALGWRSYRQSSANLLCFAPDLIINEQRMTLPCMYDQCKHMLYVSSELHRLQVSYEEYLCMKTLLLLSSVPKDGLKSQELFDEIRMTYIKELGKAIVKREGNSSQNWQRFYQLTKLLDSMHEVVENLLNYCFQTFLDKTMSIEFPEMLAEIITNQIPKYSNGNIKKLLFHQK

[2] = target: T2, Alpha-2A adrenergic receptor (Homo sapiens, UniProt P08913)
T2 sequence (P08913 whole entry): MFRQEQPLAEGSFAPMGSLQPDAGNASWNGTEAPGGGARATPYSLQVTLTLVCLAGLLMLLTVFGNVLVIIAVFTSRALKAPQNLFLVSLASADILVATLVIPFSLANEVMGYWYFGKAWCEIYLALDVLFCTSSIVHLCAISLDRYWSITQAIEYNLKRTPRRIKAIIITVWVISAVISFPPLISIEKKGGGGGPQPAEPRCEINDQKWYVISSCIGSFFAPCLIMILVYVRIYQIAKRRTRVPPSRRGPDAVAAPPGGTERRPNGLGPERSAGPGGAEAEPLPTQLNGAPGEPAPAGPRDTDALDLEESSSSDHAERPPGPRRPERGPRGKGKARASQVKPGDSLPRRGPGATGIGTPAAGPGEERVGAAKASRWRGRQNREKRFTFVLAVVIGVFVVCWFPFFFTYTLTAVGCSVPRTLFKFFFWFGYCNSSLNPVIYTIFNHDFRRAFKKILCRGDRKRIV

[3] = target: T3, Estrogen receptor (Homo sapiens, UniProt P03372); assay type: functional
T3 sequence (P03372 whole entry): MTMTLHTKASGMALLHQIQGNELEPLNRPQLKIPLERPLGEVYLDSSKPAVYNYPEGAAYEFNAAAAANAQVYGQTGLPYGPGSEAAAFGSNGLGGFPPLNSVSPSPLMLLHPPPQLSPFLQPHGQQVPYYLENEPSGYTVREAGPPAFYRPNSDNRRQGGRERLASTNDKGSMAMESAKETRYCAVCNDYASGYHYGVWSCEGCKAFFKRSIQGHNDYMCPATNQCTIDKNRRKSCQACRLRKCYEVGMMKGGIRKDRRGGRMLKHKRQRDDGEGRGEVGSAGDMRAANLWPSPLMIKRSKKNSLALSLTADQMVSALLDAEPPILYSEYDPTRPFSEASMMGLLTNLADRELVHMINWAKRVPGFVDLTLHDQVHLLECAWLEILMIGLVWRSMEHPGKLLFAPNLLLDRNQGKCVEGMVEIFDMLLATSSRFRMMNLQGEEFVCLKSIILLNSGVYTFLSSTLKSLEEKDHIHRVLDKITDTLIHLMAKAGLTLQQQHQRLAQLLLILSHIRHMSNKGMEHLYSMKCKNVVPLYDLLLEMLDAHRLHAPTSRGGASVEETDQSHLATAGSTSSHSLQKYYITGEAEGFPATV

[4] = target: T4, D(1A) dopamine receptor (Homo sapiens, UniProt P21728); assay type: functional, cell-based
T4 sequence (P21728 whole entry): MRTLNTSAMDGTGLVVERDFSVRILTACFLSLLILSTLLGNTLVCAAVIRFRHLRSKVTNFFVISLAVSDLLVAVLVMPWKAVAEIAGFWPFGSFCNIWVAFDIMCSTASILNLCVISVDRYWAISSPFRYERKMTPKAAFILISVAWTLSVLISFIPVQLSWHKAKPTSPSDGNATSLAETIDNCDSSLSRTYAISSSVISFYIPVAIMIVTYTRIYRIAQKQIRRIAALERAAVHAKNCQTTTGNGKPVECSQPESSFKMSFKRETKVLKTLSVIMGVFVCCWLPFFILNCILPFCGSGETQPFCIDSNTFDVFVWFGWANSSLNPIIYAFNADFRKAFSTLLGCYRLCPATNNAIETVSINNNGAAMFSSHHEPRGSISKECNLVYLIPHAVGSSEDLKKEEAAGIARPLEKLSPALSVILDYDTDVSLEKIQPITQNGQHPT

[5] = target: Synaptic vesicular amine transporter (Rattus norvegicus, UniProt Q01827); assay type: functional
Synaptic vesicular amine transporter, sequence (Q01827 whole entry): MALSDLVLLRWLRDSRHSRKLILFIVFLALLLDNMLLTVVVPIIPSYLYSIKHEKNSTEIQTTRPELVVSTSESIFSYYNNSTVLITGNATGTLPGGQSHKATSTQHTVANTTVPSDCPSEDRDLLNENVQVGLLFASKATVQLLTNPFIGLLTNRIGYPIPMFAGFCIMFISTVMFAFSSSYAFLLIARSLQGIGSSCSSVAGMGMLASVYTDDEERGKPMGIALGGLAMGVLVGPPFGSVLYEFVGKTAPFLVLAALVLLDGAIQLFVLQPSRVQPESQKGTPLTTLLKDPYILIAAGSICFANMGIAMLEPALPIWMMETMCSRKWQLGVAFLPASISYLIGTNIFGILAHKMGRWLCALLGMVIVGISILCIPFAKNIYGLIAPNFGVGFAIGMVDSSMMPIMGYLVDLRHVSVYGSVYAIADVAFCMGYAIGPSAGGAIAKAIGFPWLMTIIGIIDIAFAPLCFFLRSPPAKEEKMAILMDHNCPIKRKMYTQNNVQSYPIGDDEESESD

[6] = target: Voltage-dependent L-type calcium channel subunit alpha-1C (Homo sapiens, UniProt Q13936); assay type: functional, cell-based
Voltage-dependent L-type calcium channel subunit alpha-1C, sequence (Q13936 whole entry): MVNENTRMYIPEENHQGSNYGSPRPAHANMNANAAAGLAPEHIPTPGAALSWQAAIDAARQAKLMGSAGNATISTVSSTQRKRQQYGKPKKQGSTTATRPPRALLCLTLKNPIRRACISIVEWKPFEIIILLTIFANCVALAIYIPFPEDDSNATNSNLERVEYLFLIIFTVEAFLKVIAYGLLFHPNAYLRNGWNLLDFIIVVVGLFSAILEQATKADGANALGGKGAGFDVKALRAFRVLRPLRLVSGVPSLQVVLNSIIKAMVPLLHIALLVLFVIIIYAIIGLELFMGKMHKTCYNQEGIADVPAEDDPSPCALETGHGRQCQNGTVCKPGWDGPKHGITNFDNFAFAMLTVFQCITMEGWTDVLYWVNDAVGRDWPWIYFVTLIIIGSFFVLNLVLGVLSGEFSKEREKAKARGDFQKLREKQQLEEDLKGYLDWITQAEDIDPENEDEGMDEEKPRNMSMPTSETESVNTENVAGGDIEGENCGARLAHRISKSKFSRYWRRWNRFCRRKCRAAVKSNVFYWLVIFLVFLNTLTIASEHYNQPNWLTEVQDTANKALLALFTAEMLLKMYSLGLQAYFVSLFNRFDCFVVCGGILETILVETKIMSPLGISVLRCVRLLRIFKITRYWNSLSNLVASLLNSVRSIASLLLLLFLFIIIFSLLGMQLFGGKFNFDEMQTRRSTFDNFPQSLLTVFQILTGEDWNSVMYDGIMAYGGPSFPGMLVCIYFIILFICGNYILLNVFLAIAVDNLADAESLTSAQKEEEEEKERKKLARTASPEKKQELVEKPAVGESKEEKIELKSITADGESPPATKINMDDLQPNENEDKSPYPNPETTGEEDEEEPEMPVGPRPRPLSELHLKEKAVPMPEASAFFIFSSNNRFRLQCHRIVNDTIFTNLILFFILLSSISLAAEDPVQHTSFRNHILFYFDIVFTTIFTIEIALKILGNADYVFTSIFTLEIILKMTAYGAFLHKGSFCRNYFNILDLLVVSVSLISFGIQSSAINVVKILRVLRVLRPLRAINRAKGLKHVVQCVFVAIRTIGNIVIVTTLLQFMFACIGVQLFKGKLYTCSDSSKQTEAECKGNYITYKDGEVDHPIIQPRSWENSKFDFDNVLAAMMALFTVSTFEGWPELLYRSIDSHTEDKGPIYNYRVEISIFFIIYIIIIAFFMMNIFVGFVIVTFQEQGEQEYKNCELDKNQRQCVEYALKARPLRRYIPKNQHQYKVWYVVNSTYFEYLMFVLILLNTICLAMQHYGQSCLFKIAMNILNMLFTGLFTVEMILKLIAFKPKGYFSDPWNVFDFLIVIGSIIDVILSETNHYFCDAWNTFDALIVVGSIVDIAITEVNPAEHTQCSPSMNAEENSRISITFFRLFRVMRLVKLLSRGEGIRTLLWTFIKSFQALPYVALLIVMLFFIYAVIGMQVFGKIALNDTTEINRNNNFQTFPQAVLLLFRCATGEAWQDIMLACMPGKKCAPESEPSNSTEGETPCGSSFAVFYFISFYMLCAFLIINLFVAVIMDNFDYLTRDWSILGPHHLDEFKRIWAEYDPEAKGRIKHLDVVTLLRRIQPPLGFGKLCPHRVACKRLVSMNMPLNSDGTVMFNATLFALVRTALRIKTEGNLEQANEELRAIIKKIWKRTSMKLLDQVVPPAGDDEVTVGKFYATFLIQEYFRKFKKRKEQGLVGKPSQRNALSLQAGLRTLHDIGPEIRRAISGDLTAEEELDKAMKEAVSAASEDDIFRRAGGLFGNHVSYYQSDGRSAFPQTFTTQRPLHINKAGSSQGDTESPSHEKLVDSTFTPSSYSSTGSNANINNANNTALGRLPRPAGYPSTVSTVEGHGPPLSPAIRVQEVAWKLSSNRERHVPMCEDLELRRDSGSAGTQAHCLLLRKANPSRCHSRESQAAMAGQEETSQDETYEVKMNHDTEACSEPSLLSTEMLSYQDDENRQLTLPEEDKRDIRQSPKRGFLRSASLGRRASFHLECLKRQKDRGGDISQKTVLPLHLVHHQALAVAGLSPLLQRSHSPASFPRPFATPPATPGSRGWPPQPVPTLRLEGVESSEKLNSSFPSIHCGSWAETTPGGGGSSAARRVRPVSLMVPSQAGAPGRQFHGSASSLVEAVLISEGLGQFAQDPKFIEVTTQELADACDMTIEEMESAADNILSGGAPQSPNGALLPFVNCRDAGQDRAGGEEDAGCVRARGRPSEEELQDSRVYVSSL

[7] = target: T5, Thromboxane A2 receptor (Homo sapiens, UniProt P21731); assay type: functional, cell-based
T5 sequence (P21731 whole entry): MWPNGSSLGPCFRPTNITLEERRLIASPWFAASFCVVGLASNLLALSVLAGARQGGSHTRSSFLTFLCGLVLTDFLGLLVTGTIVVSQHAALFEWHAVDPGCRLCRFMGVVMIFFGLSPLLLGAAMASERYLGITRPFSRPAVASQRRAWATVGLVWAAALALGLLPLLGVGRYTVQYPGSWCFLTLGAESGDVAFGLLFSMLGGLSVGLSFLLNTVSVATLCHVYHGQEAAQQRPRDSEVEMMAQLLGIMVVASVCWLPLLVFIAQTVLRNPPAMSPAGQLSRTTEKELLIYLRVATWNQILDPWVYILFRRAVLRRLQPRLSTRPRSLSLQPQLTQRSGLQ

[8] = target: T4, D(1A) dopamine receptor
Also: assay procedure not described here.

CCOc1nc2cccc(C(=O)O)c2n1Cc1ccc(-c2ccccc2-c2nnn[nH]2)cc1
AC50 [1]: > 30 µM
AC50 [2]: > 10 µM
AC50 [3]: > 30 µM

CCCc1nc2c(C)cc(-c3nc4ccccc4n3C)cc2n1Cc1ccc(-c2ccccc2C(=O)O)cc1
AC50 [1]: > 30 µM
AC50 [2]: > 30 µM
AC50 [3]: > 30 µM

CCOc1cc([C@@H](CS(C)(=O)=O)N2C(=O)c3cccc(NC(C)=O)c3C2=O)ccc1OC
AC50 [4]: > 30 µM
AC50 [5]: > 30 µM
AC50 [6]: > 50 µM
AC50 [1]: > 30 µM
AC50 [7]: > 30 µM
AC50 [3]: > 30 µM

O=C(O)c1ccccc1 [BENZOIC ACID]
AC50 [5]: 18 µM

Nc1c(CC(=O)O)cccc1C(=O)c1ccc(Br)cc1 [BROMFENAC]
AC50 [8]: > 30 µM

Cc1nnc(SCC2=C(C(=O)O)N3C(=O)[C@@H](NC(=O)Cn4cnnn4)[C@H]3SC2)s1 [CEFAZOLIN]
AC50 [4]: > 300 µM
AC50 [7]: > 300 µM
AC50 [3]: > 300 µM

CC(C)(O/N=C(\C(=O)N[C@@H]1C(=O)N2C(C(=O)[O-])=C(C[n+]3ccccc3)CS[C@H]12)c1csc(N)n1)C(=O)O [CEFTAZIDIME]
AC50 [4]: > 300 µM
AC50 [1]: > 300 µM
AC50 [7]: > 300 µM
AC50 [3]: > 300 µM

CC(C)NC(=N)NC(=N)Nc1ccc(Cl)c(Cl)c1 [CHLORPROGUANIL]
AC50 [8]: > 30 µM

Clc1ccc(Cn2c(CN3CCCC3)nc3ccccc32)cc1 [CLEMIZOLE]
AC50 [4]: > 30 µM
AC50 [1]: > 30 µM
AC50 [7]: > 10 µM

CCC(=O)O[C@]1(C(=O)CCl)[C@@H](C)C[C@H]2[C@@H]3CCC4=CC(=O)C=C[C@]4(C)[C@@]3(F)[C@@H](O)C[C@@]21C [CLOBETASOL PROPIONATE]
AC50 [3]: > 30 µM

Cc1nc(Nc2ncc(C(=O)Nc3c(C)cccc3Cl)s2)cc(N2CCN(CCO)CC2)n1 [DASATINIB]
AC50 [2]: > 10 µM

CC(C)Cc1ccc([C@H](C)C(=O)O)cc1 [DEXIBUPROFEN]
AC50 [1]: > 30 µM
AC50 [3]: > 30 µM

O=C(O)Cc1ccccc1Nc1c(Cl)cccc1Cl [DICLOFENAC]
AC50 [2]: > 10 µM

CN[C@@H]1[C@H](O[C@H]2[C@H](O[C@H]3[C@H](O)[C@@H](O)[C@H](NC(=N)N)[C@@H](O)[C@@H]3NC(=N)N)O[C@@H](C)[C@]2(O)CO)O[C@@H](CO)[C@H](O)[C@H]1O [DIHYDROSTREPTOMYCIN]
AC50 [8]: > 30 µM

CNC[C@H](O)c1ccc(O)c(O)c1 [EPINEPHRINE]
AC50 [3]: > 30 µM

O=C(O)Cc1ccccc1Oc1ccc(Cl)cc1Cl [FENCLOFENAC]
AC50 [2]: > 10 µM

Cc1onc(-c2c(F)cccc2Cl)c1C(=O)N[C@@H]1C(=O)N2[C@@H]1SC(C)(C)[C@@H]2C(=O)O [FLOXACILLIN]
AC50 [4]: > 30 µM
AC50 [1]: > 30 µM
AC50 [7]: > 30 µM

Cc1ccc(C)c(OCCCC(C)(C)C(=O)O)c1 [GEMFIBROZIL]
AC50 [2]: > 10 µM

C#C[C@]1(O)C=C[C@H]2[C@@H]3CCC4=CC(=O)CC[C@@H]4[C@H]3CC[C@@]21CC [GESTODENE]
AC50 [8]: > 30 µM

CCCCCCCN(CC)CCCC(O)c1ccc(NS(C)(=O)=O)cc1 (centres undefined) [IBUTILIDE]
AC50 [6]: > 30 µM

COc1cc(C(C)=O)ccc1OCCCN1CCC(c2noc3cc(F)ccc23)CC1 [ILOPERIDONE]
AC50 [1]: > 30 µM
AC50 [2]: 0.176 µM
AC50 [3]: > 30 µM

CC[C@H](C)C(=O)O[C@H]1C[C@@H](C)C=C2C=C[C@H](C)[C@H](CC[C@@H]3C[C@@H](O)CC(=O)O3)[C@H]21 [LOVASTATIN]
AC50 [2]: > 10 µM

CC[C@@H](CO)NC(=O)[C@@H]1C=C2c3cccc4c3c(cn4C)C[C@H]2N(C)C1 [METHYSERGIDE]
AC50 [2]: 2.42 µM

CN1Cc2c(N)cccc2C(c2ccccc2)C1 (centres undefined) [NOMIFENSINE]
AC50 [5]: 28.8 µM

C=CC(=O)Nc1cccc(Oc2nc(Nc3ccc(N4CCN(C)CC4)cc3)nc3ccsc23)c1 [OLMUTINIB]
AC50 [5]: 0.44 µM

CC(CN1c2ccccc2Sc2ccccc21)N(C)C (centres undefined) [PROMETHAZINE]
AC50 [8]: > 30 µM

CN(CCOc1ccc(CC2SC(=O)NC2=O)cc1)c1ccccn1 (centres undefined) [ROSIGLITAZONE]
AC50 [2]: > 30 µM

S=P(N1CC1)(N1CC1)N1CC1 [THIOTEPA]
AC50 [4]: > 30 µM
AC50 [1]: > 30 µM
AC50 [7]: > 30 µM
AC50 [3]: > 30 µM

Cc1ccccc1C(=O)Nc1ccc(C(=O)N2CCCC(O)c3cc(Cl)ccc32)c(C)c1 (centres undefined) [TOLVAPTAN]
AC50 [5]: > 30 µM

C[C@]12C=CC(=O)C=C1CC[C@H]1[C@@H]3C[C@@H](O)[C@](O)(C(=O)CO)[C@@]3(C)C[C@H](O)[C@@]12F [TRIAMCINOLONE]
AC50 [1]: 1.2 µM

CC(C)C[C@H](NC(=O)[C@@H](O)[C@H](N)Cc1ccccc1)C(=O)O [UBENIMEX]
AC50 [8]: > 30 µM

CC(C)[C@H](N)C(=O)OCCOCn1cnc2c(=O)[nH]c(N)nc21 [VALACYCLOVIR]
AC50 [2]: > 10 µM

COc1cc(C(=O)NS(=O)(=O)c2ccccc2C)ccc1Cc1cn(C)c2ccc(NC(=O)OC3CCCC3)cc12 [ZAFIRLUKAST]
AC50 [1]: > 30 µM

O=C1Cc2cc(CCN3CCN(c4nsc5ccccc45)CC3)c(Cl)cc2N1 [ZIPRASIDONE]
AC50 [5]: 0.0035 µM
AC50 [6]: > 50 µM
